Laboratory results published in PMC10938758, “A phenotypic screen of the Global Health Priority Box identifies an insecticide with anthelmintic activity” (Parasites & Vectors, 2024).

How the values were obtained:
[1] = system: H. contortus xL3s; test: H. contortus dose-response assay, xL3 motility; set-up: species or system Haemonchus contortus
Procedure: The dose–response assay for H. contortus followed a well-established protocol; it was employed to evaluate the potency of hit compounds against this nematode. Test compounds were assessed individually for an effect on the motility of xL3s (10-point, twofold serial dilution in LB*, 40–0.16 μM). One compound, monepantel (prepared in the same manner as the test compounds), was used as a positive control. A solution of LB* was used as a negative control. The test and positive-control compounds were arrayed in triplicate across individual flat-bottom 96-well microplates, with six wells on each plate containing the negative control. Three hundred xL3s of H. contortus in 50 μl of LB* were added to each well to give a final volume of 100 μl. Plates were then placed in a CO2 incubator (10% [v/v] CO2, 38 °C, > 90% humidity). […] Over a period of 15 min, disturbance of an infrared beam in individual wells was recorded as a worm activity count. Raw activity counts for each well were normalised to the negative controls. The compound concentrations were log10-transformed and fitted using a variable-slope four-parameter equation, using the ordinary least squares fit model, employing GraphPad Prism (v.9.1.0). Larval development was established at 168 h of incubation with compound, as described previously. The development inhibition and phenotypes of larvae were examined microscopically. A one-way analysis of variance (ANOVA) with a Tukey multiple comparison test or an unpaired t-test was used to establish statistically significant differences in larval motility or development.

[2] = system: adult females of H. contortus; test: Motility of H. contortus adult females (video scoring); set-up: species or system Haemonchus contortus; conditions: 40 μM
Procedure: The activity of two test compounds was assessed on adult female specimens of H. contortus in an established assay. The compound was added in triplicate to the wells of a 24-well plate (Corning, USA) at a concentration of 40 μM in 500 μl of RPMI*. Two positive-control compounds, monepantel and moxidectin, and a negative control containing 1% (v/v) DMSO only were included in triplicate on the same plate. Three adult females were added to each of the triplicate wells containing either the test compound or the controls and placed in a CO2 incubator (10% [v/v] CO2, 38 °C, > 90% relative humidity) for 24 h. A video recording (30 s) of each well was taken at 3 h, 6 h, 12 h and 24 h during the total incubation period to assess the reduction in worm motility, which was scored as 3 (‘good’), 2 (‘low’), 1 (‘very low’) or 0 (‘no movement’; cf.). For each test or control compound, the motility scores for each of the triplicate wells were calculated, normalised with reference to the negative control (100% motility) and recorded as a percentage. A two-way ANOVA with a Tukey multiple comparison test was used to establish statistically significant differences in worm motility.

[3] = Cytotoxicity on HepG2 cells (glucose medium, crystal violet); type: cell-based; conditions: human, D-glucose medium, read-out: half-maximal cytotoxic concentration (CC50)
Procedure: The cytotoxic and mitotoxic activity of MMV1794206 on HepG2 human hepatoma cells was evaluated using an established protocol. The test compounds were serially diluted (seven-point, twofold serial dilution, 40–0.63 µM) in Dulbecco’s modified Eagle medium (DMEM; Thermo Fisher Scientific, USA), with GlutaMax™ supplemented with 25 mM D-glucose (cytotoxicity) or D-galactose (mitotoxicity), 10% heat-inactivated foetal bovine serum (FBS), 100 IU/ml of penicillin, 100 µg/ml of streptomycin and 0.25 µg/ml of amphotericin B (denoted as DMEM*). Monepantel and moxidectin (prepared in the same manner as the test compound) were included as reference compounds. Two compounds, doxorubicin (cytotoxic; Sigma-Aldrich, USA) and M-666 (mitotoxic; [57]), were used as positive controls at a single concentration of 10 µM. A solution of DMEM* + 0.25% (v/v) DMSO was used as a negative control. HepG2 cells were seeded into wells of a 96-well plate in 80 µl of DMEM* (at 1 × 10^5 cells per well) and allowed to adhere for 16 h at 37 °C and 5% (v/v) CO2 at > 90% humidity prior to incubation with individual compounds, at a final volume of 100 µl. […] Following 48 h of incubation with compounds, cell viability was determined by crystal violet staining. The absorbance (595 nm) of treated cells was normalised using the negative controls (viability: 100%) to calculate the cell viability. […]

[4] = system: HepG2 human hepatoma cells; test: Mitotoxicity on HepG2 cells (galactose medium, crystal violet); type: cell-based; conditions: 48 h, D-galactose medium, serum-starved
Procedure: The cytotoxic and mitotoxic activity of MMV1794206 on HepG2 human hepatoma cells was evaluated using an established protocol. […] Monepantel and moxidectin (prepared in the same manner as the test compound) were included as reference compounds. Two compounds, doxorubicin (cytotoxic; Sigma-Aldrich, USA) and M-666 (mitotoxic; [57]), were used as positive controls at a single concentration of 10 µM. A solution of DMEM* + 0.25% (v/v) DMSO was used as a negative control. HepG2 cells were seeded into wells of a 96-well plate in 80 µl of DMEM* (at 1 × 10^5 cells per well) and allowed to adhere for 16 h at 37 °C and 5% (v/v) CO2 at > 90% humidity prior to incubation with individual compounds, at a final volume of 100 µl. For the assessment of mitochondrial toxicity, cells were starved of serum (DMEM* without FBS) for 4 h prior to the incubation with compounds [60, 61]. Following 48 h of incubation with compounds, cell viability was determined by crystal violet staining. The absorbance (595 nm) of treated cells was normalised using the negative controls (viability: 100%) to calculate the cell viability. All compounds and controls were tested in triplicate. […]

CC(F)c1ncnc(NCCc2ccc(OC(F)(F)F)cc2)c1Cl (centres unmarked) [MMV1794206, flufenerim]
IC50 ([1]; Haemonchus contortus, 90 h, read-out: IC50, H. contortus larval motility inhibition): 18 µM
Maximum motility inhibition (MMI), H. contortus larvae ([1]; xL3s, 90 h of incubation): 98%
Reduction of motility of adult females of H. contortus ([2]; 3 h): ~ 33%
Reduction of motility of adult females of H. contortus ([2]; 6 h): ~89%
Reduction of motility of adult females of H. contortus ([2]; 12 h): 100%
Reduction of motility of adult females of H. contortus ([2]; 24 h): ~100%
CC50 at 48 h [3]: < 0.7 µM
half-maximal mitotoxic concentration (MC50) [4]: < 0.7 µM
